Results from PubChem BioAssay (NCI).
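Five concentrations, 48 hours, 96-well plates. Here, GI50 denotes the concentration required for 50% inhibition of growth. TGI: total growth inhibition.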 Where a SMILES comes first, the peptide text is derived from it. [ ]: non-standard residue; d: D form. The star is where a group is joined. ξ: configuration not given here. ξF = NC(Cc1ccccc1)C(=O)O; Cbz = O=C(OCc1ccccc1)*; Aib = CC(C)(N)C(=O)O

Assays:
Test in all cases: NCI anticancer screen, dose series, 48 h
[1] = test system: U251 CNS
[2] = test system: PC-3 prostate
[3] = test system: NCI-H23 lung
[4] = test system: NCI-H522 lung
[5] = test system: OVCAR-5 ovarian
[6] = test system: SF-295 CNS
[7] = test system: MDA-MB-231 breast
[8] = test system: UACC-257 melanoma
[9] = test system: M14 melanoma
[10] = test system: SK-OV-3 ovarian

SMILES	TGI [1] [µM]	TGI [2] [µM]	TGI [3] [µM]	TGI [4] [µM]	TGI [5] [µM]	TGI [6] [µM]	TGI [7] [µM]	TGI [8] [µM]	TGI [9] [µM]	GI50 [2] [µM]	GI50 [3] [µM]	GI50 [4] [µM]	GI50 [5] [µM]	GI50 [7] [µM]	GI50 [8] [µM]	TGI [10] [µM]	GI50 [1] [µM]	GI50 [10] [µM]	GI50 [6] [µM]	GI50 [9] [µM]
Nc1nc2ccc(OCC(O)CN3CCCCC3)cc2[n+]([O-])n1 (stereo unspecified)	> 100	> 100	> 100	> 100	> 100	> 100	> 100	> 100	> 100	–	–	–	–	–	–	–	–	–	–	–
N=C(N)c1ccc(-c2ccc(-c3cccs3)s2)s1	–	2.98	3.42	3.02	2.52	–	3.13	3.11	–	1.53	1.62	1.49	1.21	1.5	1.66	–	–	–	–	–
CCOC(=O)CCC(NC(=O)OCc1ccccc1)C(=O)NC(CCC(=O)OCC)C(=O)NNC(=O)OC(C)(C)C (stereo unspecified)	> 100	> 100	> 100	> 100	> 100	> 100	–	–	> 100	–	–	–	–	–	–	> 100	–	–	–	–
c1cncc(O[Si](Oc2cccnc2)(Oc2cccnc2)Oc2cccnc2)c1	> 100	–	> 100	–	> 100	> 100	–	> 100	> 100	–	–	–	–	–	–	> 100	–	–	–	–
Nc1c(-c2ccccc2[N+](=O)[O-])nc2ccccn12	> 100	–	> 100	–	> 100	> 100	–	> 100	> 100	–	–	–	–	–	–	> 100	–	–	–	–
COc1cc(Nc2nnc3n2S(=O)(=O)c2cc(C)c(Cl)cc2S3)cc(OC)c1	29.2	47	43.7	8.44	> 100	68.7	74.5	> 100	> 100	–	–	–	–	–	–	31.4	–	–	–	–
Cc1ccc(N2CCN(CCC(=O)O)CC2)cc1	> 100	> 100	> 100	> 100	> 100	> 100	> 100	> 100	> 100	–	–	–	–	–	–	> 100	–	–	–	–
NCCSCc1ccccc1Cl	> 100	93.8	95	> 100	> 100	> 100	> 100	51.9	> 100	–	–	–	–	–	–	–	–	–	–	–
CCOc1ccc(N=NS(=O)(=O)O)cc1	> 100	> 100	> 100	> 100	> 100	> 100	> 100	> 100	> 100	–	–	–	–	–	–	> 100	–	–	–	–
CC(=O)ON1C(=O)c2cccc3cccc(c23)C1=O	> 100	> 100	50	43.6	> 100	> 100	> 100	67	90.9	–	–	–	–	–	–	> 100	–	–	–	–
COC(=O)C(C)(C)NC(=O)C(Cc1ccccc1)NC(=O)C(C)(C)NC(=O)OCc1ccccc1 (stereo unspecified) (Cbz-[Aib]-[ξF]-[Aib]-OMe)	> 100	> 100	–	> 100	> 100	> 100	> 100	> 100	> 100	–	–	–	–	–	–	> 100	–	–	–	–
C(=N\OCCc1ccccc1)/c1cccnc1	> 100	> 100	> 100	> 100	> 100	> 100	> 100	> 100	> 100	–	–	–	–	–	–	> 100	–	–	–	–
COc1cc(-c2n/c(=C\c3c(O)[nH]c4cc(Cl)ccc34)cc3c2=Nc2ccccc2-3)cc(OC)c1OC	3.36	58.4	23.2	18.4	> 100	5.19	11.3	18.8	5.66	4.59	3.57	3.85	18.3	3.17	4.01	11.3	1.71	3.8	2.17	2.41
Clc1ccc(-c2ccc(-c3nnc(COc4ccc(OCc5nnc(-c6ccc(-c7ccc(Cl)cc7Cl)o6)o5)c(Cl)c4)o3)o2)c(Cl)c1	> 100	–	> 100	> 100	> 100	> 100	> 100	> 100	> 100	–	–	–	–	–	–	–	–	–	–	–
C[CH2][Ge]([CH2]C)([CH2]C)[O]C(=O)CCC(=O)[O][Ge]([CH2]C)([CH2]C)[CH2]C	> 100	–	> 100	> 100	> 100	–	–	–	> 100	–	39.7	45.2	> 100	–	–	> 100	43.3	> 100	–	> 100
NC(=O)/C=c1/c2ccccc2n2nc3ccccc3c12	29.3	> 100	64.1	33.2	77.8	> 100	7.52	41	71.7	–	–	–	–	–	–	59.3	–	–	–	–
